Among the data in US8232273B2, “Heterocyclic compounds and methods of use” (Genentech, Inc., priority 2008, dated 2012) are IC50 and Ki values, retold here.

By IC50 is commonly meant the concentration at which inhibition is half-maximal. By Ki is commonly meant a dissociation constant, usually derived from enzyme kinetics or from competition with a known ligand.

The target in assay [1] is T1, Bcl-xL (GST-Bcl-xL) (Homo sapiens, UniProt Q07817). The assay is described as follows: AlphaScreen Bcl-xL binding assay, competition with biotinylated Bim peptide. The arrangement: made in house. The settings on record: values listed in the order of Table 1; read-out: Alphascreen results (IC50) against the Bcl-xL protein. An excerpt: The measurement of competition of compounds of the invention with Bim26-mer for a Bcl-2 family protein binding site using an Alpha Screen Bcl-xL binding assay:
The BH3 proteins AlphaScreen™ assay was used to identify active small molecules Bcl-2 family protein screen, e.g., Bcl-xL, hmMcl-1 screen.
The beads come in close proximity when the protein and the peptides interact. Donor beads contain a photosensitiser that converts oxygen to an excited form of O2 at an excitation of 680 nm. Energy is transformed from the singlet oxygen and reacts with chemiluminescers on the acceptor bead, resulting in light emission at 520-620 nm. […] With this information, the IC50 of each compound was calculated
GST-Bcl-xL, GST-hmMcl-1 and biotinylated GST proteins were prepared in-house and were stored as stock solutions at −80° C. The biotinylated-Bak, and biotinylated-Bim peptides were purchased from Auspep and were stored as 500 μM stock solutions in 100% DMSO at −80° C. […] DMSO was purchased from AnalaR.
Compounds of the invention were prepared as 10 mM stocks with 100% DMSO on the day prior to performing the assay. […] To achieve a final compound concentration of 1 μM, in a separate matrical plate, 28 μL of 100% DMSO and 2 μL of 10 mM compound was added to a well, mixed well, 2 μL of this solution was taken and added to 38 μL of 100% DMSO. 20 μL of this solution was added to the test matrical plate. Several control compounds were included in the test plates. For the control wells 15 μL 100% DMSO only was added to the appropriate wells of each plate. The compound plates were then serially diluted 2 fold using the MiniTrak. Once titrations were complete, the compound plate was immediately covered with a foil seal to prevent evaporation.
The assay and bead buffers were prepared fresh. Each titrated compound plate was assayed in duplicate. The following volumes were sufficient to run 12 Proxiplates (4 assay plates run in duplicate in each of Bclxl, hmMcl and counter assays)
Protein and Peptide Preparation; and Assay Performance • 1. The assay and bead buffers were used to prepare the acceptor and donor solutions. ALPHASCREEN™ beads are light sensitive and therefore prepared in a darkened room. 2.5 μL of beads were added per 1 mL of buffer. • 2. The volume of protein or peptide to add was calculated using the following formula:
V2=Volume of stock protein/Peptide to add to Acceptor/Donor solution • 3. The assay components were prepared as separate Acceptor and Donor Solutions. The Acceptor Solution contained Acceptor beads and target protein, while the Donor Solution contained Donor beads and biotinylated peptide.
• 4. After the solutions were prepared, they were left to incubate for 30 minutes at room temperature to allow the beads to bind to the protein and the peptide. • 5. 50 μL of Bcl-xL solution, 50 μL of hmMcl-1 solution and 50 μL of biotinylated-GST were added into separate deep wells on an assay plate. A control 50 μL Assay/Bead buffer was added separate well plates (no protein). • 6. 50 μL of Bim solution and 50 μL of Bak solution were added into separate deep well plates. • 7. Transfer 0.3 μL it of sample from the compound plate into each assay plate. • 8. Incubated for 30 mins at RT, then add 5 μL of the Donor solution. After addition of the Donor solution, tapped plates gently and sealed individually with adhesive film. • 9.
The percent inhibition was calculated using the following equation:
[formula] • x=RFU obtained after compound treatment • μ^−=RFU obtained for the negative controls (no protein controls) • μ^+=RFU obtained for the positive controls (DMSO vehicle controls)
Background: Alpha assays give light when donor and acceptor beads are brought close together.

For assay [2], the target named is T1, Bcl-xL (GST-Bcl-xL). The experiment in a line: TR-FRET binding assay, competition with F-Bak for the Bcl-xL binding site. The settings on record: values listed in the order of Table 1, read-out: TR-FRET assay results (Ki), Bcl-xL. The method, then:
The measurement of competition of compounds of the invention with F-Bak for a Bcl-2 family protein (Bcl-xL) binding site using a Time Resolved Fluorescence Resonance Energy Transfer (TR-FRET) binding assay:
Test compounds were serially diluted in DMSO starting at 50 μM (2× starting concentration; 10% DMSO) and 10 μt transferred into a 384-well plate.
The samples are then mixed on a shaker for 1 minute then incubated for an additional 2 hours at room temperature. For each assay plate, a probe/antibody and protein/antibody/probe mixture were included as a negative and a positive control, respectively. Fluorescence was measured on the Envision (Perkin Elmer) using a 340/35 nm excitation filter and 520/525 (F-Bak) and 495/510 nm (Tb-labeled anti-his antibody) emission filters. Dissociation constants (Ki) were determined using Wang's equation (see, Wang, Z. X. An exact mathematical expression for describing competitive binding of two different ligands to a protein molecule. FEBS Lett. 1995 360:111-114). The TR-FRET assay can be performed in the presence of varying concentrations of human serum (HS) or fetal bovine serum (FBS).
(In general: In TR-FRET formats the signal depends on donor and acceptor labels being close together.)

T1 sequence (Q07817 whole entry, species assumed): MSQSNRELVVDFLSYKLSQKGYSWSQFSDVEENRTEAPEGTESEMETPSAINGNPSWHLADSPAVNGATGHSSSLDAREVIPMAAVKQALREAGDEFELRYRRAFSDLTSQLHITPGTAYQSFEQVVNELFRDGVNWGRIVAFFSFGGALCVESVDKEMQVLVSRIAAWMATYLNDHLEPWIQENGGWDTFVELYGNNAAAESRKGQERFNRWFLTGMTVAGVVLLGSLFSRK

With `CN(C)CC#Cc1ccc(OCCCc2sc(N3CCc4cccc(C(=O)Nc5nc6ccccc6s5)c4C3)nc2C(=O)O)c(Cl)c1` [Compound 119, 2-(8-(benzo[d]thiazol-2-ylcarbamoyl)-3,4-dihydroisoquinolin-2(1H)-yl)-5-(3-(2-chloro-4-(3-(dimethylamino)prop-1-ynyl)phenoxy)propyl)thiazole-4-carboxylic acid], at Bcl-xL (GST-Bcl-xL) [1], the IC50 stood at 0.2 nM. Further, the Ki at Bcl-xL (GST-Bcl-xL) [2] is 0.04 nM.
The corresponding values for `O=C(O)c1cccc(N2CCc3cccc(C(=O)Nc4nc5ccccc5s4)c3C2)n1` [Compound 120, 6-(8-(benzo[d]thiazol-2-ylcarbamoyl)-3,4-dihydroisoquinolin-2(1H)-yl)picolinic acid] are 310 nM and 150 nM.
With `O=C(Nc1nc2ccccc2s1)c1cccc2c1CN(c1ccc(CCCOc3ccccc3)c(C(=O)O)n1)CC2` [Compound 121, 6-(8-(benzo[d]thiazol-2-ylcarbamoyl)-3,4-dihydroisoquinolin-2(1H)-yl)-3-(3-phenoxypropyl)picolinic acid], the IC50 at Bcl-xL (GST-Bcl-xL) [1] came to 136 nM. The Ki at Bcl-xL (GST-Bcl-xL) [2] was determined as 10.6 nM.
`O=C(O)c1ccnc(N2CCc3cccc(C(=O)Nc4nc5ccccc5s4)c3C2)n1` [Compound 122, 2-(8-(benzo[d]thiazol-2-ylcarbamoyl)-3,4-dihydroisoquinolin-2(1H)-yl)pyrimidine-4-carboxylic acid]: on Bcl-xL (GST-Bcl-xL) [1], the IC50 is 7500 nM.
The same measure, in the same setting: with `O=C(Nc1nc2ccccc2s1)c1cccc2c1CN(c1ncc(Cl)c(C(=O)O)n1)CC2` [Compound 123, 2-(8-(benzo[d]thiazol-2-ylcarbamoyl)-3,4-dihydroisoquinolin-2(1H)-yl)-5-chloropyrimidine-4-carboxylic acid] the figure was 4000 nM; with `O=C(O)c1coc(N2CCc3cccc(C(=O)Nc4nc5ccccc5s4)c3C2)n1` [Compound 124, 2-(8-(benzo[d]thiazol-2-ylcarbamoyl)-3,4-dihydroisoquinolin-2(1H)-yl)oxazole-4-carboxylic acid], 865 nM.
As for `O=C(Nc1nc2ccccc2s1)c1cccc2c1CN(c1ccc(-c3ccccc3)c(C(=O)O)n1)CC2` [Compound 125, 6-(8-(benzo[d]thiazol-2-ylcarbamoyl)-3,4-dihydroisoquinolin-2(1H)-yl)-3-phenylpicolinic acid], the IC50 on Bcl-xL (GST-Bcl-xL) [1] is 124 nM. Further, the Ki on Bcl-xL (GST-Bcl-xL) [2] was 66.2 nM.
The corresponding values for `Cc1ccccc1-c1ccc(N2CCc3cccc(C(=O)Nc4nc5ccccc5s4)c3C2)nc1C(=O)O` [Compound 126, 6-(8-(benzo[d]thiazol-2-ylcarbamoyl)-3,4-dihydroisoquinolin-2(1H)-yl)-3-o-tolylpicolinic acid] are 77.6 nM and 197 nM.
In the case of `O=C(Nc1nc2ccccc2s1)c1cccc2c1CN(c1ccc(CCc3ccccc3)c(C(=O)O)n1)CC2` [Compound 127, 6-(8-(benzo[d]thiazol-2-ylcarbamoyl)-3,4-dihydroisoquinolin-2(1H)-yl)-3-phenethylpicolinic acid], the IC50 on Bcl-xL (GST-Bcl-xL) [1] turned out to be 598 nM. Further, the inhibition constant Ki at Bcl-xL (GST-Bcl-xL) [2] came out at 660 nM.
Take `O=C(CSc1ccccc1)Nc1ccc(N2CCc3cccc(C(=O)Nc4nc5ccccc5s4)c3C2)nc1C(=O)O` [Compound 128, 6-(8-(benzo[d]thiazol-2-ylcarbamoyl)-3,4-dihydroisoquinolin-2(1H)-yl)-3-(2-(phenylthio)acetamido)picolinic acid]: on Bcl-xL (GST-Bcl-xL) [1], the IC50 came out at 340 nM.
As for `CN(C)CCOc1ccc(OCCCc2ccc(N3CCc4cccc(C(=O)Nc5nc6ccccc6s5)c4C3)nc2C(=O)O)cc1` [Compound 132, 6-(8-(benzo[d]thiazol-2-ylcarbamoyl)-3,4-dihydroisoquinolin-2(1H)-yl)-3-(3-(4-(2-(dimethylamino)ethoxy)phenoxy)propyl)picolinic acid], on Bcl-xL (GST-Bcl-xL) [1], the IC50 was 0.9 nM. On Bcl-xL (GST-Bcl-xL) [2], the Ki is 0.18 nM.
The corresponding values for `CN(C)CC#Cc1ccc(OCCCc2ccc(N3CCc4cccc(C(=O)Nc5nc6ccccc6s5)c4C3)nc2C(=O)O)cc1` [Compound 133, 6-(8-(benzo[d]thiazol-2-ylcarbamoyl)-3,4-dihydroisoquinolin-2(1H)-yl)-3-(3-(4-(3-(dimethylamino)prop-1-ynyl)phenoxy)propyl)picolinic acid] are 1.2 nM and 0.023 nM.
`O=C(Nc1nc2ccccc2s1)c1cccc2c1CN(c1ccc(/C=C/c3ccccc3)c(C(=O)O)n1)CC2` [Compound 135, (E)-6-(8-(benzo[d]thiazol-2-ylcarbamoyl)-3,4-dihydroisoquinolin-2(1H)-yl)-3-styrylpicolinic acid]: on Bcl-xL (GST-Bcl-xL) [1], the IC50 was 92.4 nM.
`COc1ccc(COc2ccc(N3CCc4cccc(C(=O)Nc5nc6ccccc6s5)c4C3)nc2C(=O)O)cc1` [Compound 136, 6-(8-(benzo[d]thiazol-2-ylcarbamoyl)-3,4-dihydroisoquinolin-2(1H)-yl)-3-(4-methoxybenzyloxy)picolinic acid]: the IC50 on Bcl-xL (GST-Bcl-xL) [1] was found to be 19000 nM.
Still for that read-out and setting: with `O=C(Nc1nc2ccccc2s1)c1cccc2c1CN(c1ccc(CCCc3ccccc3)c(C(=O)O)n1)CC2` [Compound 137, 6-(8-(benzo[d]thiazol-2-ylcarbamoyl)-3,4-dihydroisoquinolin-2(1H)-yl)-3-(3-phenylpropyl)picolinic acid] the figure was 30 nM; with `O=C(Nc1nc2ccccc2s1)c1cccc2c1CN(c1ccc(/C=C/Cc3ccccc3)c(C(=O)O)n1)CC2` [Compound 138, (E)-6-(8-(benzo[d]thiazol-2-ylcarbamoyl)-3,4-dihydroisoquinolin-2(1H)-yl)-3-(3-phenylprop-1-enyl)picolinic acid], 3 nM.
With `O=C(Nc1nc2ccccc2s1)c1cccc2c1CN(c1ccc(CCCOc3ccc(OCCN4CCCC4)cc3)c(C(=O)O)n1)CC2` [Example 106, 6-(8-(benzo[d]thiazol-2-ylcarbamoyl)-3,4-dihydroisoquinolin-2(1H)-yl)-3-(3-(4-(2-(pyrrolidin-1-yl)ethoxy)phenoxy)propyl)picolinic acid], the IC50 on Bcl-xL (GST-Bcl-xL) [1] is 1.1 nM.
`O=C(Nc1nc2ccccc2s1)c1cccc2c1CN(c1nc(C(=O)O)c(CCc3ccc4cc(OCCCN5CCOCC5)ccc4c3)s1)CC2` [Example 111, 2-(8-(benzo[d]thiazol-2-ylcarbamoyl)-3,4-dihydroisoquinolin-2(1H)-yl)-5-(2-(6-(3-morpholinopropoxy)naphthalen-2-yl)ethyl)thiazole-4-carboxylic acid]: the Ki on Bcl-xL (GST-Bcl-xL) [2] is 0.02 nM.
Consider `O=C(Nc1nc2ccccc2s1)c1cccc2c1CN(c1nc(C(=O)O)c(CCCOc3cc(F)c(NCCN4CCOCC4)cc3F)s1)CC2` [Example 115, 2-(8-(benzo[d]thiazol-2-ylcarbamoyl)-3,4-dihydroisoquinolin-2(1H)-yl)-5-(3-(2,5-difluoro-4-(2-morpholinoethylamino)phenoxy)propyl)thiazole-4-carboxylic acid], for which the Ki on Bcl-xL (GST-Bcl-xL) [2] was 0.05 nM.
